Measured values taken from patent US10844420B2, “Method for detecting slow-VISA” (priority 2016, dated 2020).

What was measured:
Format in all cases: cell-based, Staphylococcus aureus
[1] = test system: slow-VISA; test: Growth of slow-VISA in liquid medium containing VCM with or without mupirocin
Excerpt: In the figure, MUP indicates mupirocin.
(§1) From FIG. 1(b), when VISA was used, an increase in the growth rate by the addition of mupirocin was not observed.

[2] = test system: VISA; test: Growth of VISA in liquid medium containing VCM with or without mupirocin; settings: FIG. 1(b)
Excerpt: as §1

[3] = test system: slow-VISA; test: ETEST of VCM on BHI medium added with mupirocin, slow-VISA; settings: BHI medium added with mupirocin at a concentration at which growth was not suppressed
Description: The pictures on the left show the results of a mupirocin-free medium after 96 hours, the pictures on the right show the results of a mupirocin-containing medium after 96 hours, and black arrows show the points after 48 hours.
(§2) (2) The bacteria grown in step (a) is adjusted to OD=0.3 using an absorbance measuring instrument (wavelength of 578 nm), and it was set as 1×10^8 cells. Then, the bacteria are spread on a BHI agar medium of Eiken Chemical Co., Ltd. and a mupirocin-containing BHI agar medium, and the ETEST® strips (bioMerieux Japan Ltd.) of VCM and cefoxitin are placed thereon, followed by culture for 48 hours in accordance with the CLSI guideline. After 48 hours, tested bacteria having a MIC of cefoxitin of ≥8 μg/mL and a MIC of VCM of >6 μg/mL are suspected to be slow-VISA.
(§3) Further, it was supposed that the resistance further increased when the stringent response relating to those mutated genes was induced.

[4] = test system: vancomycin-sensitive strain; test: ETEST of VCM on BHI medium added with mupirocin, vancomycin-sensitive strain; settings: BHI medium added with mupirocin at a concentration at which growth was not suppressed
Description: as §2, §3

[5] = test system: slow-VISA; test: Disk diffusion method of VCM on BHI agar medium with or without mupirocin; settings: 30 μg/mL vancomycin disks, BHI agar containing 0.032 μg/mL of mupirocin, culture for 48 hours
Description: The disk diffusion method using […] vancomycin disks was separately performed on BHI agar media containing 0.032 μg/mL of mupirocin or BHI agar media in the absence of a drug. […] The values shown above the panels indicate the averages and standard deviations of the diameters of inhibitory zones.

## C/C(=C\C(=O)OCCCCCCCCC(=O)O)C[C@@H]1OC[C@H](C[C@@H]2O[C@H]2[C@@H](C)[C@H](C)O)[C@@H](O)[C@H]1O [mupirocin]
[1]; 0.032 μg/mL mupirocin and 16 μg/mL VCM versus comparison media, in 24 hours
  difference in OD values: ≥ 1
[1]; liquid medium, 0.032 μg/mL mupirocin and 16 μg/mL of VCM
  growth rate versus culture in mupirocin-free liquid medium or medium with growth-affecting mupirocin concentration and 8 μg/mL of VCM: larger
[2]
  increase in the growth rate by the addition of mupirocin: not observed
[3]
  degree of resistance (ETEST of VCM): increased
[4]
  degree of resistance (ETEST of VCM): did not increase
[5]
  colonies around inhibitory zone: Small numerous colonies were detected
